Columns and labels:
[1] = target: T1, Peroxisome proliferator-activated receptor gamma (Homo sapiens, UniProt P37231); assay: Inhibition of human peroxisome proliferator activated receptor gamma binding
T1 sequence (P37231 whole entry): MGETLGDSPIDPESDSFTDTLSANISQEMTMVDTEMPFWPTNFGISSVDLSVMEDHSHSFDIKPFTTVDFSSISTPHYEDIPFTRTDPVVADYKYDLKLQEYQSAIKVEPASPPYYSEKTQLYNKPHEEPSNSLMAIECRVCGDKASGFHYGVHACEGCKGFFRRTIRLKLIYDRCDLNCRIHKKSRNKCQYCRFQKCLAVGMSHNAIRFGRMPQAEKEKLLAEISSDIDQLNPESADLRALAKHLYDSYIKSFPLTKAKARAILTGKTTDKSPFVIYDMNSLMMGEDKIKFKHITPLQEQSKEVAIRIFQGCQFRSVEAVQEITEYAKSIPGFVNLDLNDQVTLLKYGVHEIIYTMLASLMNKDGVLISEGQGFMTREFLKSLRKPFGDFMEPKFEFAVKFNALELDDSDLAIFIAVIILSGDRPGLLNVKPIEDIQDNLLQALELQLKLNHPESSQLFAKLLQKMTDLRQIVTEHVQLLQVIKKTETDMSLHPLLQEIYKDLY

[2] = target: T1, Peroxisome proliferator-activated receptor gamma
Description: Maximal intrinsic response against peroxisome proliferator activated receptor gamma transactivation

Cytochrome P450 2C9 = Cytochrome P450 2C9 (Homo sapiens, UniProt P11712); assay: Inhibitory concentration against Cytochrome P450 2C9 in rats
Chain of Cytochrome P450 2C9 (P11712 whole entry): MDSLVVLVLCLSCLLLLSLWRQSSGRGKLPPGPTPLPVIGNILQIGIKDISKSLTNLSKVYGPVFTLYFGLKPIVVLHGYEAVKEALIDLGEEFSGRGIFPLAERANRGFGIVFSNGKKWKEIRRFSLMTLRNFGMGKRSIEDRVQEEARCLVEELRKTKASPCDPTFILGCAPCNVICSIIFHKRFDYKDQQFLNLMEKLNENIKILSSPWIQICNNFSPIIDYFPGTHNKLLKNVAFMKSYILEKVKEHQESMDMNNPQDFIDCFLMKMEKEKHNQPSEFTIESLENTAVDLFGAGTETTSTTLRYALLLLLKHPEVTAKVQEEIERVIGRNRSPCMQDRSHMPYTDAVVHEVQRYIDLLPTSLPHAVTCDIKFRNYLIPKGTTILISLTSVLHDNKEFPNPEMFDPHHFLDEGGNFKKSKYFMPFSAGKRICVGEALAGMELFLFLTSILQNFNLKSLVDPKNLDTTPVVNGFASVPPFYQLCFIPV

[3] = Area under plasma concentration time curve when administered to Sprague Dawley rats after once daily dosing for two weeks; assay type: ADME; conditions: rat
[4] = mouse, in vivo, 10 mg/kg
Description: Area under plasma concentration time curve when administered to db/db mice at 10 mg/kg dose; Range = 250-700 uMh

[5] = Area under plasma concentration time curve when administered to db/db mice at 30 mg/kg dose; assay type: ADME, organism-based; parameters: dose 30 mg/kg; conditions: mouse, in vivo

Row | SMILES | IC50 [1] [µM] | EC50 [2] [µM] | other results
1 | COc1ccc2ncc(-n3c(C)c(Cc4cccc(O[C@@H](C)C(=O)O)c4)c4cc(OC(F)(F)F)ccc43)cc2c1 | 0.029 | 0.049 | 
2 | Cc1c(Cc2cccc(O[C@@H](C)C(=O)O)c2)c2cc(OC(F)(F)F)ccc2n1-c1ccccn1 | 0.466 |  | 
3 | Cc1[nH]c2ccc(OC(F)(F)F)cc2c1Cc1cccc(O[C@@H](C)C(=O)O)c1 |  |  | IC50 (Cytochrome P450 2C9): 0.05 µM
4 | COc1ccc2nc(-n3c(C)c(Cc4cccc(O[C@@H](C)C(=O)O)c4)c4cc(OC(F)(F)F)ccc43)ccc2c1 | 0.135 |  | 
5 | CN(CCOc1ccc(CC2SC(=O)NC2=O)cc1)c1ccccn1 (stereo not given) [ROSIGLITAZONE] |  |  | AUC [3]: 2700 uMh; AUC [4]: 700 uMh
6 | COc1ccc(-n2c(C)c(Cc3cccc(O[C@@H](C)C(=O)O)c3)c3cc(OC(F)(F)F)ccc32)cc1 | 0.001 | 0.003 | 
7 | Cc1c(Oc2ccc(Cl)c(O[C@@H](C)C(=O)O)c2)c2cc(OC(F)(F)F)ccc2n1-c1noc2cc(Cl)ccc12 | 0.001 | 0.003 | 
8 | COc1ccc2c(-n3c(C)c(Cc4cc(O[C@H](C)C(=O)O)ccc4Cl)c4cc(OC(F)(F)F)ccc43)noc2c1 | 0.002 | 0.003 | AUC [3]: 1030 uMh; AUC [5]: 660 uMh

The next lines start with results.

Row | IC50 [1] [µM] | EC50 [2] [µM] | SMILES | other results
9 | 0.033 | 0.195 | Cc1c(Oc2cccc(O[C@@H](C)C(=O)O)c2)c2cc(OC(F)(F)F)ccc2n1-c1noc2cc(Cl)ccc12 | 
10 | > 50 | > 3 | CN1C(=O)SC(Cc2ccc(OCCN(C)c3ccccn3)cc2)C1=O (stereo not given) | 
11 | 0.02 | 0.039 | CCCc1ccc(Oc2c(C)n(-c3noc4cc(Cl)ccc34)c3ccc(OC(F)(F)F)cc23)cc1O[C@@H](C)C(=O)O | 
12 | 0.641 |  | CCCc1c(Oc2c(C)n(-c3noc4cc(Cl)ccc34)c3ccc(OC(F)(F)F)cc23)cccc1O[C@@H](C)C(=O)O | 
13 | 0.005 | 0.003 | Cc1c(Oc2cc(O[C@@H](C)C(=O)O)ccc2Cl)c2cc(OC(F)(F)F)ccc2n1-c1noc2cc(Cl)ccc12 | 
14 | 0.042 | 0.016 | COc1ccc(C(=O)n2c(C)c(Cc3cccc(OCC#N)c3)c3cc(OC(F)(F)F)ccc32)cc1 | 
15 | 0.062 | 0.031 | C#CCOc1cccc(Cc2c(C)n(C(=O)c3ccc(OC)cc3)c3ccc(OC(F)(F)F)cc23)c1 | 
16 | 0.109 | 0.114 | Cc1c(Oc2cc(Cl)cc(O[C@@H](C)C(=O)O)c2)c2cc(OC(F)(F)F)ccc2n1-c1noc2cc(Cl)ccc12 | 
